These results are taken from US9156792B2, “Retinamide and uses thereof” (UNIVERSITY OF MARYLAND, BALTIMORE, priority 2008, dated 2015).

For one experiment, the system named is RARα,β,γ receptors.
Assay: not given
The settings on record: compared with ATRA; cited from earlier work.
Consider `CC1=C(/C=C/C(C)=C/C=C/C(C)=C/C(=O)O)C(C)(C)CCC1n1ccnc1` (stereo not drawn) [VN/14-1], for which the “binding and activation of RARα,β,γ receptors” value is “binds and activates the RARα,β,γ receptors, albeit it is significantly less potent than ATRA”.

The subject of a further experiment is PC-3 prostate cancer cells. Briefly: MTT assay of PC-3 prostate cancer cell growth (proliferation) inhibition. Type of experiment: cell-based, human. The following applies: Homo sapiens, 144 h, PC-3 cells, 6 days of treatment, read-out: GI50 Values (concentrations that cause 50% growth inhibition). On the procedure: Data are means (SEM<±5%) of at least three independent experiments.
Compounds VNLG/145, VNLG/146, VNLG/147, VNLG/148, VNLG/152 and VNLG/153 were tested and evaluated for their ability to inhibit the growth (proliferation) of PC-3 prostate cancer cells using the MTT [3-(4,5-dimethylthiazol-2-yl)-2,5-diphenyltetrazolium bromide] assay (Gediyal et al. 2005). VN/66-1 of U.S. Pat. No. 7,265,143 was tested side by side for comparison. The GI50 values (concentrations that cause 50% growth inhibition) were determined from dose-response curves. See in FIG. 1 for VNLG/145.
The growth inhibitory experiments with the other compounds gave plots that were similar to FIG. 1.
For the compound `CC1=C(/C=C/C(C)=C/C=C/C(C)=C/C(=O)Nc2cc(C(F)(F)F)ccc2C(F)(F)F)C(C)(C)CCC1n1ccnc1` (stereo not drawn), the GI50 was found to be 14.1 ± 7.12 µM.

Regarding `CC1=C(/C=C/C(C)=C/C=C/C(C)=C/C(=O)Nc2ncnc3[nH]cnc23)C(C)(C)CCC1n1ccnc1` (stereo not drawn), the GI50 amounted to 5.62 ± 0.37 µM. `CC1=C(/C=C/C(C)=C/C=C/C(C)=C/C(=O)Nc2ccc(O)cc2)C(C)(C)CCC1n1ccnc1` (stereo not drawn): the GI50 came out at 1.7 ± 0.05 µM. Take `CC1=C(/C=C/C(C)=C/C=C/C(C)=C/C(=O)NC(C)(C)C)C(C)(C)CCC1n1ccnc1` (stereo not drawn) [drawing 35]: the GI50 is 1.86 ± 0.05 µM. Consider `CC1=C(/C=C/C(C)=C/C=C/C(C)=C/C(=O)Nc2ccccc2O)C(C)(C)CCC1n1ccnc1` (stereo not drawn) [drawing 37], for which the GI50 came to 1.7 ± 0.07 µM. Regarding `CC1=C(/C=C/C(C)=C/C=C/C(C)=C/C(=O)Nc2ccc(F)cc2)C(C)(C)CCC1n1ccnc1` (stereo not drawn) [drawing 39], the GI50 came to 0.61 ± 0.11 µM. Take `CC1=C(/C=C/C(C)=C/C=C/C(C)=C/C(=O)Nc2ccccc2)C(C)(C)CCC1n1ccnc1` (stereo not drawn) [drawing 40]: the GI50 turned out to be 1.17 ± 0.05 µM.

Still in this experiment, the particulars now being: PC-3 cells, side by side with VN/66-1.
For the compound `CC1=C(/C=C/C(C)=C/C=C/C(C)=C/C(=O)NC(C)(C)C)C(C)(C)CCC1n1ccnc1` (stereo not drawn) [VNLG/145], the “potency (growth inhibition) compared with VN/66-1” value is “potencies similar to VN/66-1”.

`CC1=C(/C=C/C(C)=C/C=C/C(C)=C/C(=O)Nc2ccccc2O)C(C)(C)CCC1n1ccnc1` (stereo not drawn) [VNLG/147]: the “potency (growth inhibition) compared with VN/66-1” value is given as “potencies similar to VN/66-1”. With `CC1=C(/C=C/C(C)=C/C=C/C(C)=C/C(=O)Nc2ccc(F)cc2)C(C)(C)CCC1n1ccnc1` (stereo not drawn) [VNLG/152], the “potency (growth inhibition) compared with VN/66-1” value is “potencies better than VN/66-1”. Same read-out and setting: in the case of `CC1=C(/C=C/C(C)=C/C=C/C(C)=C/C(=O)Nc2ccccc2)C(C)(C)CCC1n1ccnc1` (stereo not drawn) [VNLG/153] it was “potencies better than VN/66-1”.
